What was measured:
Experiment in all cases: relative viability (nuclei count vs DMSO), 5 days (fraction); higher = more cells survive
Idelalisib + Lapatinib = compound: CC[C@H](Nc1ncnc2[nH]cnc12)c1nc2cccc(F)c2c(=O)n1-c1ccccc1 [Idelalisib] + CS(=O)(=O)CCNCc1ccc(-c2ccc3ncnc(Nc4ccc(OCc5cccc(F)c5)c(Cl)c4)c3c2)o1 [Lapatinib] (partner 2 µM)
Method in brief: (§1)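 Dosing by pin tool came one day after lung cancer cell lines were seeded in 1536-well plates, using either one drug or a fixed anchor-drug dose plus five library-drug doses (not always all listed) in √10 steps. After 5 days, nuclei were counted on 4× images. Relative viability is treated-well nuclei count divided by vehicle-well nuclei count, and values are medians of duplicate plates.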

Idelalisib + Alpelisib = compound: CC[C@H](Nc1ncnc2[nH]cnc12)c1nc2cccc(F)c2c(=O)n1-c1ccccc1 [Idelalisib] + Cc1nc(NC(=O)N2CCC[C@H]2C(N)=O)sc1-c1ccnc(C(C)(C)C(F)(F)F)c1 [Alpelisib] (partner 2 µM)
Method in brief: as §1

Idelalisib + Crizotinib = compound: CC[C@H](Nc1ncnc2[nH]cnc12)c1nc2cccc(F)c2c(=O)n1-c1ccccc1 [Idelalisib] + C[C@@H](Oc1cc(-c2cnn(C3CCNCC3)c2)cnc1N)c1c(Cl)ccc(F)c1Cl [Crizotinib] (partner 1 µM)
Method in brief: as §1

Idelalisib + Tozasertib = compound: CC[C@H](Nc1ncnc2[nH]cnc12)c1nc2cccc(F)c2c(=O)n1-c1ccccc1 [Idelalisib] + Cc1cc(Nc2cc(N3CCN(C)CC3)nc(Sc3ccc(NC(=O)C4CC4)cc3)n2)n[nH]1 [Tozasertib] (partner 0.1 µM)
Method in brief: as §1

Cell Line	relative viability (Idelalisib + Lapatinib; first compound 0.04 µM)	relative viability (Idelalisib + Lapatinib; first compound 0.1265 µM)	relative viability (Idelalisib + Lapatinib; first compound 0.4 µM)	relative viability (Idelalisib + Lapatinib; first compound 1.265 µM)	relative viability (Idelalisib + Lapatinib; first compound 4 µM)	relative viability (Idelalisib + Alpelisib; first compound 0.04 µM)	relative viability (Idelalisib + Alpelisib; first compound 0.1265 µM)	relative viability (Idelalisib + Alpelisib; first compound 0.4 µM)	relative viability (Idelalisib + Alpelisib; first compound 1.265 µM)	relative viability (Idelalisib + Alpelisib; first compound 4 µM)	relative viability (Idelalisib + Crizotinib; first compound 0.04 µM)	relative viability (Idelalisib + Crizotinib; first compound 0.1265 µM)	relative viability (Idelalisib + Crizotinib; first compound 0.4 µM)	relative viability (Idelalisib + Crizotinib; first compound 1.265 µM)	relative viability (Idelalisib + Crizotinib; first compound 4 µM)	relative viability (Idelalisib + Tozasertib; first compound 0.04 µM)	relative viability (Idelalisib + Tozasertib; first compound 0.1265 µM)	relative viability (Idelalisib + Tozasertib; first compound 0.4 µM)	relative viability (Idelalisib + Tozasertib; first compound 1.265 µM)	relative viability (Idelalisib + Tozasertib; first compound 4 µM)
Calu-6	1.04	1.06	1.05	1.02	1.06	0.954	1.03	0.909	0.99	0.892	0.866	0.822	0.759	0.832	0.774	–	–	–	–	–
SW 900	–	–	–	–	–	–	–	–	–	–	–	–	–	–	–	0.69	0.539	0.542	0.605	0.594
NCI-H650	1.17	1.07	0.944	0.924	0.877	1.27	1.01	0.961	1.46	0.962	0.947	0.673	0.652	0.664	0.669	0.748	0.767	0.635	0.803	0.69
NCI-H460	1.1	1.2	0.932	1.01	1.02	0.566	0.521	0.426	0.324	0.291	1.39	0.784	0.842	0.928	0.83	0.626	0.397	0.436	0.447	0.255
NCI-H2228	1.21	1.14	0.875	1.23	1.03	1.07	0.739	0.774	0.672	0.631	0.476	0.389	0.354	0.413	0.355	0.292	0.216	0.223	0.271	0.239
NCI-H2085	0.744	0.757	0.687	0.723	0.503	1.01	0.955	0.811	0.874	0.514	0.86	0.897	0.761	0.736	0.81	0.915	0.779	0.8	0.641	0.692
HCC-366	1.01	1.02	0.999	1.03	0.987	0.429	0.4	0.28	0.245	0.183	0.891	0.398	0.471	0.464	0.411	0.121	0.126	0.107	0.112	0.068
EPLC-272H	0.951	1.04	0.705	0.901	0.84	0.617	0.9	0.767	0.74	0.669	0.891	0.853	0.753	0.739	0.748	0.212	0.227	0.242	0.212	0.222
201T	0.978	1.05	1.04	1.13	1.02	0.974	0.987	0.937	0.963	0.872	1.02	1.07	0.999	1.08	1.02	1.07	1.01	0.785	0.947	0.667
LCLC-103H	–	–	–	–	–	1	0.914	0.744	0.868	0.926	1.03	0.986	0.957	1.09	0.839	0.505	0.48	0.425	0.472	0.308
NCI-H1650	0.888	0.806	0.762	0.775	0.561	–	–	–	–	–	0.87	0.892	0.975	0.985	0.952	0.312	0.405	0.36	0.33	0.304
NCI-H2342	–	–	–	–	–	–	–	–	–	–	–	–	–	–	–	0.44	0.556	0.44	0.455	0.397
NCI-H522	–	–	–	–	–	–	–	–	–	–	–	–	–	–	–	0.578	0.569	0.508	0.571	0.489
EBC-1	0.225	0.198	0.233	0.239	0.222	0.961	0.941	0.684	0.658	0.349	0.202	0.185	0.172	0.204	0.202	–	–	–	–	–
ChaGo-K-1	–	–	–	–	–	–	–	–	–	–	1.38	1.13	1.1	1.15	1.17	0.244	0.227	0.197	0.212	0.187
IA-LM	0.641	0.733	0.958	1.24	0.816	0.787	0.754	0.884	0.72	0.84	0.745	0.849	0.944	1.19	0.818	–	–	–	–	–
NCI-H1703	1.53	1.03	0.961	1.29	0.618	0.37	0.304	0.273	0.272	0.207	0.857	0.56	0.631	0.754	0.315	–	–	–	–	–
A549	0.96	0.996	0.924	0.923	0.832	0.873	0.812	0.505	0.51	0.548	0.902	0.899	0.669	0.751	0.539	–	–	–	–	–
NCI-H1623	–	–	–	–	–	–	–	–	–	–	–	–	–	–	–	0.393	0.429	0.443	0.431	0.388
NCI-H1563	1.01	1.05	0.833	1	0.83	0.839	1.03	0.807	0.825	0.669	0.774	0.87	0.793	0.828	0.728	–	–	–	–	–
NCI-H1395	1.01	0.948	0.993	0.933	0.758	1.17	0.987	0.974	1.15	0.694	–	–	–	–	–	0.817	0.77	0.771	0.767	0.62
NCI-H1792	0.465	0.942	0.903	0.878	0.918	0.315	0.662	0.665	0.577	0.581	0.612	0.987	0.804	0.979	1.01	–	–	–	–	–

— the supplement of paper PMC10307832
